In patent US10670605B2, “Cysteine reactive probes and uses thereof” (The Scripps Research Institute, priority 2015, dated 2020):
Counter-ions that a name gives are not always drawn.

Key:
PKCθ-CD28 interaction = molecular target: T1, PKCθ-CD28 interaction (Mus musculus, UniProt Q02111); test: PKCθ immunoprecipitation with CD28 and immunoblot; type: cell-based; details: 50 μM, mouse T cells
T1 construct: endogenous in cells; host or cells: peripheral CD4+ T cells from C57BL/6 mice
From the text: FIG. 32A-FIG. 32G exemplify DMF-sensitive C14/C17 residues in PKCθ are important for CD28 interactions and T cell activation. FIG. 32A illustrates representative MS1 profiles for DMF-sensitive (C14/C17) and -insensitive (C322) Cys residues in PKCθ. FIG. 32B exemplifies sequence conservation analysis of human and mouse PKCθ, human PKCδ, and human PKCε (SEQ ID NOS 865-868, respectively, in order of appearance). Shown in red are C14 and C17. FIG. 32C illustrates location of DMF-sensitive C14 and C17 residues in the C2 domain of PKCθ (PDB accession number 2ENJ). […] Immunoprecipitations (IPs) were performed in the cell lysates with anti-CD28 or control IgG antibodies and IPs blotted for CD28 or PKCθ. FIG. 32E illustrates Co-IP of WT PKCθ and the C14S/C17S (2CS) PKCθ mutant with CD28. PKCθ(−/−) T cells were reconstituted with empty vector (EV), WT PKCθ, or the 2CS PKCθ mutant. FIG. 32F and FIG. 32 G illustrate PKCθ(−/−) T cells reconstituted with WT or 2CS PKCθ were assayed for activation potential by measuring CD25 expression (FIG. 32F) and IL-2 (FIG. 32G). For FIG. 32E-FIG. 32G, PKCθ(−/−) T cell cultures were pre-activated with plate-coated anti-CD3+anti-CD28 for 24 h before retroviral transduction with empty vector, WT PKCθ, or the 2CS PKCθ mutant. […]

KDM4B C694 (O94953) = molecular target: T2, KDM4B C694 (O94953) (Homo sapiens, UniProt O94953); test: Competitive isoTOP-ABPP in situ; type: cell-based; details: fragment 2 at 200 μM, MDA-MB-231 cells
T2 sequence (O94953 1-1096): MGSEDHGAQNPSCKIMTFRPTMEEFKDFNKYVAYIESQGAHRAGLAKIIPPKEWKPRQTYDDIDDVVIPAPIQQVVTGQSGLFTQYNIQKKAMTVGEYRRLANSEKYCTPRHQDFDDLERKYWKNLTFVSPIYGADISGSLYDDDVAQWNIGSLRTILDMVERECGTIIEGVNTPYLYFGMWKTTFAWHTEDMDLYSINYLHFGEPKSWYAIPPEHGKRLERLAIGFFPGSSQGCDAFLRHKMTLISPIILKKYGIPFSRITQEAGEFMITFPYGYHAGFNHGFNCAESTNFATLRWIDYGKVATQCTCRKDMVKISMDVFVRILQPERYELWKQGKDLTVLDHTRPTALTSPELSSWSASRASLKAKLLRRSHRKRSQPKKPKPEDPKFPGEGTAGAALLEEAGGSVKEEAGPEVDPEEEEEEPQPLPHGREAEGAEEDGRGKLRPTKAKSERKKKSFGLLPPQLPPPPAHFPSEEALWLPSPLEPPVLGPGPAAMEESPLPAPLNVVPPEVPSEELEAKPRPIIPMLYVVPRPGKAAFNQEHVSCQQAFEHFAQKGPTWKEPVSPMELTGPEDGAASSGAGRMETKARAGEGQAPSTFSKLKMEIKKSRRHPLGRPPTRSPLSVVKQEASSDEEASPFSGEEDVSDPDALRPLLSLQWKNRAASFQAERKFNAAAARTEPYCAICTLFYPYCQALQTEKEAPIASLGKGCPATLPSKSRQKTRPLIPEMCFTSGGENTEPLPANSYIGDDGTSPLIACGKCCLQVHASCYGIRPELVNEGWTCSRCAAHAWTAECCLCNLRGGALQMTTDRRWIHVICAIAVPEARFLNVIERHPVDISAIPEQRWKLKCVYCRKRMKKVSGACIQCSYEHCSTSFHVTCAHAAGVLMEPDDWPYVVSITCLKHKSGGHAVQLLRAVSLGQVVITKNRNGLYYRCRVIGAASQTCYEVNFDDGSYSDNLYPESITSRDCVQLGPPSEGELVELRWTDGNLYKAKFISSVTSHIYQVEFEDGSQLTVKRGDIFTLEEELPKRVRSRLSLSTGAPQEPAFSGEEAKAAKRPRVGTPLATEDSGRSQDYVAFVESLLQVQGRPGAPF

T1 sequence (Q02111 whole entry): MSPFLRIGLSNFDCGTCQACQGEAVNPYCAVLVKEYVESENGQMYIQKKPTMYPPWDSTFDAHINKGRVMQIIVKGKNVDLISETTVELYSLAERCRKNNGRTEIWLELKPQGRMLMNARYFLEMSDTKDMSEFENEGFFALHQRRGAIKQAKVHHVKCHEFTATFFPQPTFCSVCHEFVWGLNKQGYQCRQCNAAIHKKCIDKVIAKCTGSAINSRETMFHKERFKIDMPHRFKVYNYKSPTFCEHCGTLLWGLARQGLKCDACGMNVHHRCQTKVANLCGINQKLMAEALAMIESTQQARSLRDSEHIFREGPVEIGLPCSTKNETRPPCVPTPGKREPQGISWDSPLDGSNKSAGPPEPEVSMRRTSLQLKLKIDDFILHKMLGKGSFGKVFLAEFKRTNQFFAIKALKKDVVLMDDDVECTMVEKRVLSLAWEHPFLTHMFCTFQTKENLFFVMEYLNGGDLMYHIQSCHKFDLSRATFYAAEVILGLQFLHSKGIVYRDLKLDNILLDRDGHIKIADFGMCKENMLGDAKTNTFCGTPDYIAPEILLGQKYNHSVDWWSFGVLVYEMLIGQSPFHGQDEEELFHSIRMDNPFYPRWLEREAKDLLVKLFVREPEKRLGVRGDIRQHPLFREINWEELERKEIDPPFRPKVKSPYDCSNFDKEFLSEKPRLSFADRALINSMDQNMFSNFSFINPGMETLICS

Compound: COC(=O)/C=C/C(=O)OC [DMF, dimethyl fumarate]
- interaction between PKCθ and CD28 (PKCθ-CD28 interaction): blocked

Compound: COc1ccc2c(c1)CCCN2C(=O)CCl [compound 2]
- isoTOP-ABPP reactivity profile (ratio) 2_200 μM_in-situ_231 (KDM4B C694 (O94953)): 20.0
